Data taken from US12486253B2, “Therapeutics for the degradation of mutant BRAF” (C4 THERAPEUTICS, INC., priority 2021, dated 2025).

Biological target: BRAF V600E (Homo sapiens, UniProt P15056, V600E)
Assay: HiBiT cellular BRAF^V600E degradation assay
Assay type: cell-based
Conditions: A375.10 cells, 24 h; for DC50: concentration at which 50% of total cellular BRAF^V600E is degraded; for Emax: residual protein remaining in the cell, read-out: HiBit 24 h Emax

Chain of BRAF V600E (P15056 whole entry V600E): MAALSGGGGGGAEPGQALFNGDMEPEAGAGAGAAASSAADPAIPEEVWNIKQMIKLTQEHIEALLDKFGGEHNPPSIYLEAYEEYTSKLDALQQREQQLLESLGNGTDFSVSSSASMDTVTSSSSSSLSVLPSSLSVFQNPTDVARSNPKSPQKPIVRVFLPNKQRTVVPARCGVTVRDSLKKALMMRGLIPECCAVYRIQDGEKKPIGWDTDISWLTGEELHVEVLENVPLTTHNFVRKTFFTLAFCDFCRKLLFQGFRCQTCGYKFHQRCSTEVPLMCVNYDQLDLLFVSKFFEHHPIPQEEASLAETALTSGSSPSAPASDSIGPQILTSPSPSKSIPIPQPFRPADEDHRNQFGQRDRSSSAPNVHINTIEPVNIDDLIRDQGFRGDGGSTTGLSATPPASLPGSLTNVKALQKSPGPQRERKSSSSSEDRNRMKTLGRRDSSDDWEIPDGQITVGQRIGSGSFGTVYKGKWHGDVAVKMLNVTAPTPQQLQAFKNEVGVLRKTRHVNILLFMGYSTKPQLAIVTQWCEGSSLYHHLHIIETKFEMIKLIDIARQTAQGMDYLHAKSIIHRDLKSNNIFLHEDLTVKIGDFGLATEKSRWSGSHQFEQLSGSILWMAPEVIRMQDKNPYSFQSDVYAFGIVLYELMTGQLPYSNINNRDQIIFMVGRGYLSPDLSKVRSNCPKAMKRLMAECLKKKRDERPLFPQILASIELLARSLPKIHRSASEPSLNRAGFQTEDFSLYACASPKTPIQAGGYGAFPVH

SMILES	DC50 [nM]	Emax [%]
CCN(C)S(=O)(=O)Nc1ccc(F)c(Oc2ccc3ncn([C@H]4CCC5(CCN(C(=O)CC6(O)CCN(c7ccc8c(N9CCC(=O)NC9=O)nn(C)c8c7F)CC6)CC5)C4)c(=O)c3c2)c1C#N [Example 172, 6-[2-cyano-3-[[ethyl(methyl)sulfamoyl]amino]-6-fluorophenoxy]-3-[(3S)-8-[2-[1-[3-(2,4-dioxo-1,3-diazinan-1-yl)-7-fluoro-1-methylindazol-6-yl]-4-hydroxypiperidin-4-yl]acetyl]-8-azaspiro[4.5]decan-3-yl]-4-oxoquinazoline]	28.9	25.1
CCN(C)S(=O)(=O)Nc1ccc(F)c(Oc2ccc3ncn([C@H]4COC5(CCN(C(=O)CC6(O)CCN(c7ccc8c(N9CCC(=O)NC9=O)nn(C)c8c7F)CC6)CC5)C4)c(=O)c3c2)c1C#N [Example 173, (3R)-3-[6-[2-cyano-3-[[ethyl(methyl)sulfamoyl]amino]-6-fluorophenoxy]-4-oxoquinazolin-3-yl]-8-[2-[1-[3-(2,4-dioxo-1,3-diazinan-1-yl)-7-fluoro-1-methylindazol-6-yl]-4-hydroxypiperidin-4-yl]acetyl]-1-oxa-8-azaspiro[4.5]decane]	192	46
COC1CCN(S(=O)(=O)Nc2ccc(F)c(Oc3ccc4ncn([C@H]5COC6(CCN(C(=O)CC7(O)CCN(c8cc9c(cc8F)c(N8CCC(=O)NC8=O)nn9C)CC7)CC6)C5)c(=O)c4c3)c2C#N)C1 (stereo partly drawn) [Example 175, N-[2-cyano-3-[3-[(3R)-8-[2-[1-[3-(2,4-dioxo-1,3-diazinan-1-yl)-5-fluoro-1-methylindazol-6-yl]-4-hydroxypiperidin-4-yl]acetyl]-1-oxa-8-azaspiro[4.5]decan-3-yl]-4-oxoquinazolin-6-yl]oxy-4-fluorophenyl]-3-methoxypyrrolidine-1-sulfonamide]	31.2	31.1
CCN(C)S(=O)(=O)Nc1ccc(F)c(Oc2ccc3ncn(C4COC5(CCN(C(=O)CC6(O)CCN(c7cc8c(cc7F)c(N7CCC(=O)NC7=O)nn8C)CC6)CC5)C4)c(=O)c3c2N(C)C)c1C#N (stereo not drawn) [Example 179, 3-[6-[2-cyano-3-[[ethyl(methyl)sulfamoyl]amino]-6-fluorophenoxy]-5-(dimethylamino)-4-oxoquinazolin-3-yl]-8-[2-[1-[3-(2,4-dioxo-1,3-diazinan-1-yl)-5-fluoro-1-methylindazol-6-yl]-4-hydroxypiperidin-4-yl]acetyl]-1-oxa-8-azaspiro[4.5]decane]	27.8	19.3

More lines, now with the values ahead:

DC50 [nM]	Emax [%]	SMILES
20.5	24.8	CO[C@H]1CCN(S(=O)(=O)Nc2ccc(F)c(Oc3ccc4ncn([C@H]5COC6(CCN(C(=O)CC7(O)CCN(c8cc9c(cc8F)c(N8CCC(=O)NC8=O)nn9C)CC7)CC6)C5)c(=O)c4c3)c2C#N)C1 [Example 176, (3S)—N-[2-cyano-3-[3-[(3R)-8-[2-[1-[3-(2,4-dioxo-1,3-diazinan-1-yl)-5-fluoro-1-methylindazol-6-yl]-4-hydroxypiperidin-4-yl]acetyl]-1-oxa-8-azaspiro[4.5]decan-3-yl]-4-oxoquinazolin-6-yl]oxy-4-fluorophenyl]-3-methoxypyrrolidine-1-sulfonamide]
18	22.3	CO[C@@H]1CCN(S(=O)(=O)Nc2ccc(F)c(Oc3ccc4ncn([C@H]5COC6(CCN(C(=O)CC7(O)CCN(c8cc9c(cc8F)c(N8CCC(=O)NC8=O)nn9C)CC7)CC6)C5)c(=O)c4c3)c2C#N)C1 [Example 177, (3R)—N-[2-cyano-3-[3-[(3R)-8-[2-[1-[3-(2,4-dioxo-1,3-diazinan-1-yl)-5-fluoro-1-methylindazol-6-yl]-4-hydroxypiperidin-4-yl]acetyl]-1-oxa-8-azaspiro[4.5]decan-3-yl]-4-oxoquinazolin-6-yl]oxy-4-fluorophenyl]-3-methoxypyrrolidine-1-sulfonamide]
